What was measured:
4T1 tumor cells [1] = test: Mouse 4T1 breast tumor model: Compound A in preventing lung and liver metastasis of a primary breast tumor (Biological Example 1); type: in vivo, BALB/c mice; settings: 21 days; for effect on the number of large lung metastases, difference to vehicle: FIG. 3; for effect on the incidence of liver micrometastases, difference to vehicle / effect on the incidence of liver micrometastases, difference to Cisplatin at 1.2 mg/kg: FIG. 4; for effect on the number of medium lung metastases, difference to vehicle: FIG. 2
Description: Protocol Eighty-eight BALB/c mice were inoculated with 5×10^5 4T1 tumor cells (ATCC) orthotoically into the third mammary fat pad. On Day 0 of the study (2 days post-inoculation), 80 mice were randomized into 8 groups (10 mice per group). Dose administration began on Day 0 and continued for 21 days (3 weeks). Compound A was administered twice a day, Cisplatin was administered once a week, and Zometa was administered three times weekly. Tumor measurements were performed three times per week, starting when tumors were palpable (approximately 3×3 mm). Body weight measurements were taken three times per week at the same time each day. Tumor and body weight measurements fall all mice were measured prior to dose administration. On Day 21 of the treatment, mice were euthanized and the lungs exposed and the numbers of surface lung metastases were counted. The size of each metastasis was measured using a caliper in one dimenstion and categorized as follows: Small: Less than 2 mm Medium: Greater or equal to 2 mm Large: Greater or equal to 3 mm The lungs and livers from all mice were excised and placed in PLP fixative and stained for micrometastasis quantification.

4T1 tumor cells [2] = test: Mouse 4T1 breast tumor model: Compound A in combination with Cisplatin in preventing lung and liver metastasis (Biological Example 2); type: in vivo, BALB/c mice; settings: 21 days, FIG. 7
Description: Using a variation of the mouse 4T1 breast tumor model, as described in Current Protocols in Immunology (2000), 20.2.1-20.2.16, Compound A in combination with Cisplatin was assayed to determine the efficacy of the combination therapy to prevent, treat or manage metastatic cancer in BALB/c mice.
• Vehicle: 0.5% HPMC/0.1% Tween. • Compound A: Preformulated dosing solutions in vehicle for 7 mg/kg and 21 mg/kg for oral administration. • Cisplatin: Diluted in sterile saline for 1.2 mg/kg (suboptimal clinical formulation) for intravenous administration. Protocol
Sixty-six BALB/c mice were inoculated with 5×10^5 4T1 tumor cells (ATCC) orthotoically into the third mammary fat pad. On Day 0 of the study (2 days post-inoculation), 60 mice were randomized into 6 groups (10 mice per group). Dose administration began on Day 0 and continued for 21 days (3 weeks). Compound A was administered twice a day, Cisplatin was administered once a week, and Zometa was administered three times weekly. Tumor measurements were performed three times per week, starting when tumors were palpable (approximately 3×3 mm). Body weight measurements were taken three times per week at the same time each day. Tumor and body weight measurements fall all mice were measured prior to dose administration.
On Day 21 of the treatment, mice were euthanized and the lungs exposed and the number of surface lung metastases were counted. The size of each metastasis was measured using a caliper in one dimenstion and categorized as follows:
Medium: Greater or equal to 2 mm
Large: Greater or equal to 3 mm
The lungs and livers from all mice were excised and placed in PLP fixative and stained for micrometastasis quantification.

[3] = Compound A 25 mg/kg oral twice a day, p<0.05, Mann-Whitney Test
[4] = Compound A 45 mg/kg oral twice a day, p<0.05, Mann-Whitney Test
[5] = Cisplatin 1.2 mg/kg intravenous once a week, p<0.05, Mann-Whitney Test
[6] = Cisplatin 2.4 mg/kg intravenous once a week, p<0.05, Mann-Whitney Test

Nc1nc(Nc2ccc3c(c2)CC[C@@H](N2CCCC2)CC3)nn1-c1cc2c(nn1)-c1ccccc1CCC2 [Compound A, 1-(6,7-dihydro-5H-benzo[6,7]cyclohepta[1,2-c]pyridazin-3-yl)-N^3-((7-(S)-pyrrolidin-1-yl)-6,7,8,9-tetrahydro-5H-benzo[7]annulene-2-yl)-1H-1,2,4-triazole-3,5-diamine]
significant: effect on the number of large lung metastases, difference to vehicle (4T1 tumor cells [1]; [3]) | effect on the incidence of liver micrometastases, difference to vehicle (4T1 tumor cells [1]; [3]) | effect on the number of medium lung metastases, difference to vehicle (4T1 tumor cells [1]; [4]) | effect on the incidence of liver micrometastases, difference to vehicle (4T1 tumor cells [1]; [4]) | effect on the incidence of liver micrometastases, difference to vehicle (4T1 tumor cells [1]; Compound A 75 mg/kg oral twice a day, p<0.05, Mann-Whitney Test) | effect on reducing the number of large lung metastases, difference to vehicle (4T1 tumor cells [2]; Compound A 7 mg/kg oral twice a day, p<0.01, Mann-Whitney Test) | effect on reducing the number of large lung metastases, difference to vehicle (4T1 tumor cells [2]; Compound A 21 mg/kg oral twice a day, p<0.01, Mann-Whitney Test)

N.N.[Cl][Pt][Cl] [Cisplatin, cis-diamminedichloridoplatinum(II), reference compound]
significant: effect on the number of large lung metastases, difference to vehicle (4T1 tumor cells [1]; [5]) | effect on the number of large lung metastases, difference to vehicle (4T1 tumor cells [1]; [6]) | effect on the incidence of liver micrometastases, difference to Cisplatin at 1.2 mg/kg (4T1 tumor cells [1]; [6]) | effect on the incidence of liver micrometastases, difference to Cisplatin at 1.2 mg/kg (4T1 tumor cells [1]; Cisplatin 4 mg/kg intravenous once a week, p<0.05, Mann-Whitney Test) | effect on the number of medium lung metastases, difference to vehicle (4T1 tumor cells [1]; cisplatin 4 mg/kg intravenous once a week, p<0.001, Mann-Whitney Test) | effect on reducing the number of large lung metastases, difference to vehicle (4T1 tumor cells [2]; [5])

O=P(O)(O)C(O)(Cn1ccnc1)P(=O)(O)O [Zometa, reference compound]
significant: effect on the incidence of liver micrometastases, difference to vehicle (4T1 tumor cells [1]; Zometa 0.1 mg/kg subcutaneous three times weekly, p<0.05, Mann-Whitney Test)
